# Laboratory results from PubChem BioAssay (NCI).
#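 Compound exposure: 48 hours, 5 concentrations, 96-well plates. Here, GI50 denotes the concentration required for 50% inhibition of growth. At the TGI there is no net growth.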
# Columns and labels:
# Test in all cases: NCI tumour cell line growth inhibition, 48 h
# 786-0 renal = test system: 786-0 renal
# A498 renal = test system: A498 renal
# A549 NSCLC = test system: A549 NSCLC
# ACHN renal = test system: ACHN renal
# BT-549 breast = test system: BT-549 breast
# CAKI-1 renal = test system: CAKI-1 renal
# CCRF-CEM leukemia = test system: CCRF-CEM leukemia
# COLO 205 colon = test system: COLO 205 colon
# DU-145 prostate = test system: DU-145 prostate
# EKVX NSCLC = test system: EKVX NSCLC
# HCC-2998 colon = test system: HCC-2998 colon
# HCT-116 colon = test system: HCT-116 colon
# HCT-15 colon = test system: HCT-15 colon
# HL-60(TB) leukemia = test system: HL-60(TB) leukemia
# HOP-62 NSCLC = test system: HOP-62 NSCLC
# HOP-92 NSCLC = test system: HOP-92 NSCLC
# HS 578T breast = test system: HS 578T breast
# HT29 colon = test system: HT29 colon
# IGROV1 ovarian = test system: IGROV1 ovarian
# K-562 leukemia = test system: K-562 leukemia
# KM12 colon = test system: KM12 colon
# LOX IMVI melanoma = test system: LOX IMVI melanoma
# M14 melanoma = test system: M14 melanoma
# MALME-3M melanoma = test system: MALME-3M melanoma
# MCF7 breast = test system: MCF7 breast
# MDA-MB-231 breast = test system: MDA-MB-231 breast
# MDA-MB-435 = test system: MDA-MB-435
# MOLT-4 leukemia = test system: MOLT-4 leukemia
# NCI-H226 lung = test system: NCI-H226 lung
# NCI-H23 lung = test system: NCI-H23 lung
# NCI-H460 lung = test system: NCI-H460 lung
# NCI-H522 lung = test system: NCI-H522 lung
# NCI/ADR-RES ovarian = test system: NCI/ADR-RES ovarian
# OVCAR-3 ovarian = test system: OVCAR-3 ovarian
# OVCAR-4 ovarian = test system: OVCAR-4 ovarian
# OVCAR-5 ovarian = test system: OVCAR-5 ovarian
# OVCAR-8 ovarian = test system: OVCAR-8 ovarian
# PC-3 prostate = test system: PC-3 prostate
# RPMI-8226 leukemia = test system: RPMI-8226 leukemia
# RXF 393 renal = test system: RXF 393 renal
# SF-268 CNS = test system: SF-268 CNS
# SF-295 CNS = test system: SF-295 CNS
# SF-539 CNS = test system: SF-539 CNS
# SK-MEL-2 melanoma = test system: SK-MEL-2 melanoma
# SK-MEL-28 melanoma = test system: SK-MEL-28 melanoma
# SK-MEL-5 melanoma = test system: SK-MEL-5 melanoma
# SK-OV-3 ovarian = test system: SK-OV-3 ovarian
# SN12C renal = test system: SN12C renal
# SNB-19 CNS = test system: SNB-19 CNS
# SNB-75 CNS = test system: SNB-75 CNS
# SR leukemia = test system: SR leukemia
# SW-620 colon = test system: SW-620 colon
# T-47D breast = test system: T-47D breast
# TK-10 renal = test system: TK-10 renal
# U251 CNS = test system: U251 CNS
# UACC-257 melanoma = test system: UACC-257 melanoma
# UACC-62 melanoma = test system: UACC-62 melanoma
# UO-31 renal = test system: UO-31 renal
smiles,measurement,setting,value
COC(=O)c1c2c(c(C)[n+]([O-])c1C)C(=O)C=C(NCc1ccc(F)c(Cl)c1)C2=O,GI50,786-0 renal,1.13 µM
same,TGI,786-0 renal,3.6 µM
same,GI50,A498 renal,0.437 µM
same,TGI,A498 renal,2.05 µM
same,GI50,A549 NSCLC,0.352 µM
same,TGI,A549 NSCLC,1.95 µM
same,GI50,ACHN renal,0.126 µM
same,TGI,ACHN renal,1.81 µM
same,GI50,BT-549 breast,1.01 µM
same,TGI,BT-549 breast,2.43 µM
same,GI50,CAKI-1 renal,0.0559 µM
same,TGI,CAKI-1 renal,1.9 µM
same,GI50,CCRF-CEM leukemia,0.475 µM
same,TGI,CCRF-CEM leukemia,4.71 µM
same,GI50,COLO 205 colon,0.245 µM
same,TGI,COLO 205 colon,0.863 µM
same,GI50,DU-145 prostate,0.566 µM
same,TGI,DU-145 prostate,2.07 µM
same,GI50,EKVX NSCLC,0.592 µM
same,TGI,EKVX NSCLC,2.27 µM
same,GI50,HCC-2998 colon,0.187 µM
same,TGI,HCC-2998 colon,1.41 µM
same,GI50,HCT-116 colon,0.13 µM
same,TGI,HCT-116 colon,1.03 µM
same,GI50,HCT-15 colon,0.0855 µM
same,TGI,HCT-15 colon,1.63 µM
same,GI50,HL-60(TB) leukemia,0.27 µM
same,TGI,HL-60(TB) leukemia,0.895 µM
same,GI50,HOP-62 NSCLC,0.718 µM
same,TGI,HOP-62 NSCLC,2.33 µM
same,GI50,HOP-92 NSCLC,1.69 µM
same,TGI,HOP-92 NSCLC,3.84 µM
same,GI50,HS 578T breast,1.62 µM
same,TGI,HS 578T breast,6.48 µM
same,GI50,HT29 colon,0.243 µM
same,TGI,HT29 colon,2.15 µM
same,GI50,IGROV1 ovarian,0.421 µM
same,TGI,IGROV1 ovarian,1.91 µM
same,GI50,K-562 leukemia,0.0315 µM
same,TGI,K-562 leukemia,5.27 µM
same,GI50,KM12 colon,0.0515 µM
same,TGI,KM12 colon,1.58 µM
same,GI50,LOX IMVI melanoma,0.0258 µM
same,TGI,LOX IMVI melanoma,1.35 µM
same,GI50,M14 melanoma,0.117 µM
same,TGI,M14 melanoma,1.45 µM
same,GI50,MALME-3M melanoma,0.149 µM
same,TGI,MALME-3M melanoma,0.332 µM
same,GI50,MCF7 breast,0.169 µM
same,TGI,MCF7 breast,0.892 µM
same,GI50,MDA-MB-231 breast,0.269 µM
same,TGI,MDA-MB-231 breast,3.42 µM
same,GI50,MDA-MB-435,0.0515 µM
same,TGI,MDA-MB-435,0.173 µM
same,GI50,MOLT-4 leukemia,0.404 µM
same,TGI,MOLT-4 leukemia,2.19 µM
same,GI50,NCI-H226 lung,1.26 µM
same,TGI,NCI-H226 lung,3.26 µM
same,GI50,NCI-H23 lung,0.412 µM
same,TGI,NCI-H23 lung,2.11 µM
same,GI50,NCI-H460 lung,0.264 µM
same,TGI,NCI-H460 lung,1.4 µM
same,GI50,NCI-H522 lung,0.266 µM
same,TGI,NCI-H522 lung,1.7 µM
same,GI50,NCI/ADR-RES ovarian,0.265 µM
same,TGI,NCI/ADR-RES ovarian,1.63 µM
same,GI50,OVCAR-3 ovarian,0.201 µM
same,TGI,OVCAR-3 ovarian,0.628 µM
same,GI50,OVCAR-4 ovarian,0.151 µM
same,TGI,OVCAR-4 ovarian,0.603 µM
same,GI50,OVCAR-5 ovarian,1.16 µM
same,TGI,OVCAR-5 ovarian,2.69 µM
same,GI50,OVCAR-8 ovarian,0.155 µM
same,TGI,OVCAR-8 ovarian,1.14 µM
same,GI50,PC-3 prostate,0.245 µM
same,TGI,PC-3 prostate,4.02 µM
same,GI50,RPMI-8226 leukemia,0.839 µM
same,TGI,RPMI-8226 leukemia,3.93 µM
same,GI50,RXF 393 renal,1.13 µM
same,TGI,RXF 393 renal,2.46 µM
same,GI50,SF-268 CNS,1.01 µM
same,TGI,SF-268 CNS,2.81 µM
same,GI50,SF-295 CNS,0.231 µM
same,TGI,SF-295 CNS,1.48 µM
same,GI50,SF-539 CNS,0.604 µM
same,TGI,SF-539 CNS,1.71 µM
same,GI50,SK-MEL-2 melanoma,0.677 µM
same,TGI,SK-MEL-2 melanoma,2.5 µM
same,GI50,SK-MEL-28 melanoma,0.411 µM
same,TGI,SK-MEL-28 melanoma,2.15 µM
same,GI50,SK-MEL-5 melanoma,0.164 µM
same,TGI,SK-MEL-5 melanoma,0.311 µM
same,GI50,SK-OV-3 ovarian,1.51 µM
same,TGI,SK-OV-3 ovarian,3.38 µM
same,GI50,SN12C renal,0.31 µM
same,TGI,SN12C renal,1.28 µM
same,GI50,SNB-19 CNS,0.801 µM
same,TGI,SNB-19 CNS,2.07 µM
same,GI50,SNB-75 CNS,1.69 µM
same,TGI,SNB-75 CNS,3.09 µM
same,GI50,SR leukemia,0.381 µM
same,TGI,SR leukemia,6.73 µM
same,GI50,SW-620 colon,0.112 µM
same,TGI,SW-620 colon,1.32 µM
same,GI50,T-47D breast,0.0638 µM
same,TGI,T-47D breast,1.35 µM
same,GI50,TK-10 renal,2.22 µM
same,TGI,TK-10 renal,5.49 µM
same,GI50,U251 CNS,0.291 µM
same,TGI,U251 CNS,1.44 µM
same,GI50,UACC-257 melanoma,0.171 µM
same,TGI,UACC-257 melanoma,0.64 µM
same,GI50,UACC-62 melanoma,0.0325 µM
same,TGI,UACC-62 melanoma,0.662 µM
same,GI50,UO-31 renal,1.05 µM
same,TGI,UO-31 renal,2.37 µM
Nc1nc(Cl)c2ncn(Cc3ccc(CCl)cc3)c2n1,TGI,786-0 renal,93.9 µM
same,TGI,A498 renal,84.6 µM
same,TGI,A549 NSCLC,76.2 µM
same,TGI,ACHN renal,25.1 µM
same,TGI,BT-549 breast,24.5 µM
same,TGI,CAKI-1 renal,9.87 µM
same,TGI,CCRF-CEM leukemia,> 100 µM
same,TGI,COLO 205 colon,13.4 µM
same,TGI,DU-145 prostate,19.5 µM
same,TGI,EKVX NSCLC,7.22 µM
same,TGI,HCC-2998 colon,8.95 µM
same,TGI,HCT-116 colon,14.5 µM
same,TGI,HCT-15 colon,19.8 µM
same,TGI,HL-60(TB) leukemia,> 100 µM
same,TGI,HOP-62 NSCLC,27.3 µM
same,TGI,HOP-92 NSCLC,> 100 µM
same,TGI,HS 578T breast,> 100 µM
same,TGI,HT29 colon,27.6 µM
same,TGI,IGROV1 ovarian,22.9 µM
same,TGI,K-562 leukemia,> 100 µM
same,TGI,KM12 colon,22.9 µM
same,TGI,LOX IMVI melanoma,43.9 µM
same,TGI,M14 melanoma,37.7 µM
same,TGI,MALME-3M melanoma,27.3 µM
same,TGI,MCF7 breast,16.8 µM
same,TGI,MDA-MB-231 breast,34.6 µM
same,TGI,MDA-MB-435,42.5 µM
same,TGI,MOLT-4 leukemia,> 100 µM
same,TGI,NCI-H226 lung,37.1 µM
same,TGI,NCI-H23 lung,30.4 µM
same,TGI,NCI-H460 lung,20 µM
same,TGI,NCI-H522 lung,25.9 µM
same,TGI,NCI/ADR-RES ovarian,26.7 µM
same,TGI,OVCAR-3 ovarian,5.5 µM
same,TGI,OVCAR-4 ovarian,30.1 µM
same,TGI,OVCAR-5 ovarian,14.9 µM
same,TGI,OVCAR-8 ovarian,32.8 µM
same,TGI,PC-3 prostate,25 µM
same,TGI,RPMI-8226 leukemia,> 100 µM
same,TGI,RXF 393 renal,7.26 µM
same,TGI,SF-268 CNS,8.38 µM
same,TGI,SF-295 CNS,27.8 µM
same,TGI,SF-539 CNS,9.89 µM
same,TGI,SK-MEL-2 melanoma,29.1 µM
same,TGI,SK-MEL-28 melanoma,44.4 µM
same,TGI,SK-MEL-5 melanoma,31 µM
same,TGI,SK-OV-3 ovarian,31.1 µM
same,TGI,SN12C renal,27.1 µM
same,TGI,SNB-19 CNS,20 µM
same,TGI,SNB-75 CNS,90.2 µM
same,TGI,SR leukemia,9.37 µM
same,TGI,SW-620 colon,13.8 µM
same,TGI,T-47D breast,40.1 µM
same,TGI,TK-10 renal,40.5 µM
same,TGI,U251 CNS,12 µM
same,TGI,UACC-257 melanoma,47.9 µM
same,TGI,UACC-62 melanoma,8.18 µM
same,TGI,UO-31 renal,25.4 µM
